These compounds were tested on HCT116^MTAP Deletion cells (assay: Anti-proliferation assay on cells (Cell-Titer Glo, 10 days)). Settings: 240 h, HCT116^MTAP Deletion cells, 10 days incubation, CTG readout; read-out: HCT116^MTAP Deletion GI50.
Type: cell-based
Experimental: HCT116^MTAP Deletion cells were from Pharmaron (China); HCT116 cells were from ATCC; McCoy's 5A medium was purchased from Invitrogen (USA); penicillin-streptomycin and fetal bovine serum were purchased from Gibco (USA); a 384-well plate was purchased from PerkinElmer (USA); and Cell-Titer Glo reagent was purchased from Promega (USA).
Compound dissolution: All the compounds were dissolved in dimethyl sulfoxide (DMSO) and then stored. The compounds were stored at room temperature in a dry condition for 3 months for short term storage or at -20 °C for long term storage.
Cell culture and passaging
The cells were cultured strictly in accordance with ATCC requirements. The cell culture medium (McCoy's 5A medium + 10% fetal bovine serum + 1% penicillin + streptomycin) was transferred to a 15 mL centrifuge tube and centrifuged at 1000 rpm for 5 min. The supernatant was removed. The cells were resuspended with complete culture medium, inoculated into a culture dish at the required density, and cultured in an incubator at 37 °C, 95% humid air, and 5% carbon dioxide. The culture medium was replenished or the cells were passaged every 2-3 days depending on the cell growth condition.
Cell proliferation activity assay
When the confluency of cells in the culture dish reached about 90%, the cells were washed twice with PBS, and then treated with trypsin to become single cells. The cells were counted, and 40µl of the cells was inoculated into each well of a 384-well plate (50 cells/well). The plate was equilibrated at 37 °C and 5% carbon dioxide for 10 to 15 minutes. The compounds were injected into the 384-well plate using Echo550, and positive control and negative control (0.1% DMSO) were set up. Each compound was subjected to a 3-fold dilution, resulting in 10 concentration gradients, in duplicate, and the content of DMSO was 0.1%. The 384-well plate was incubated in a cell culture incubator for 10 days.
Then, 40 µl of cell proliferation assay reagent (CTG) was added to the 384-well plate, and the plate was shaken to mix well. Then, the 384-well plate was incubated at 37 °C and 5% carbon dioxide in the dark for 30 minutes. The data were read using the Envision multifunctional microplate reader. […] According to the different drug concentrations and their corresponding inhibition rates, the GI50 curve was drawn using GraphPad 8.0 software. The data were analyzed, and the final IC50 value was obtained.

GI50	Structure (SMILES)
100 to 1000 nM	CCC(C)N(Cc1ccc(S(F)(F)(F)(F)F)cc1)C(=O)C(=O)Nc1cnc(N)c(C)c1 (stereo not drawn) [Example 69]
100 to 1000 nM	Cc1cc(NC(=O)C(=O)N(Cc2ccc(C(F)(F)F)cn2)CC2CC(F)(F)C2)cnc1N [Example 70]
10 to 100 nM	CCC(C)N(Cc1ccc(C2CC2)cn1)C(=O)C(=O)Nc1cnc(N)c(C)c1 (stereo not drawn) [Example 71]
1000 to 10000 nM	CCC(C)N(Cc1ccn(C)n1)C(=O)C(=O)Nc1cnc(N)c(C)c1 (stereo not drawn) [Example 72]
1000 to 10000 nM	CCC(C)N(C(=O)C(=O)Nc1cnc(N)c(C)c1)C(C)c1ccc(C(F)(F)F)cn1 (stereo not drawn) [Example 74]
100 to 1000 nM	CCC(C)N(Cc1cc(C)n(C)n1)C(=O)C(=O)Nc1cnc(N)c(C)c1 (stereo not drawn) [Example 75]
100 to 1000 nM	CCC(C)N(Cc1nc(C)cs1)C(=O)C(=O)Nc1cnc(N)c(C)c1 (stereo not drawn) [Example 76]
10 to 100 nM	CCC(C)N(Cc1ccc(C#N)c(Cl)n1)C(=O)C(=O)Nc1cnc(N)c(C)c1 (stereo not drawn) [Example 77]
100 to 1000 nM	CCC(C)N(Cc1ccc(C(F)(F)F)cn1)C(=O)C(=O)Nc1cnc(N)c(C2CC2)c1 (stereo not drawn) [Example 78]
100 to 1000 nM	CC1OCc2c(NC(=O)C(=O)N(Cc3ccc(C(F)(F)F)cn3)CC3CC3)cnc(N)c21 (stereo not drawn) [Example 79]
10 to 100 nM	CCC(C)N(Cc1ccc(OC(C)C)cn1)C(=O)C(=O)Nc1cnc(N)c(C)c1 (stereo not drawn) [Example 80]
< 10 nM	CC1OCc2c(NC(=O)C(=O)N(Cc3ccc(C(F)(F)F)cn3)Cc3ccnc4[nH]ccc34)cnc(N)c21 (stereo not drawn) [Example 81]
100 to 1000 nM	CCC(C)N(Cc1ncc(C(F)(F)F)cn1)C(=O)C(=O)Nc1cnc(N)c(C)c1 (stereo not drawn) [Example 82]
10 to 100 nM	CCC(C)N(Cc1ccc(OC2CC2)cn1)C(=O)C(=O)Nc1cnc(N)c(C)c1 (stereo not drawn) [Example 83]
10 to 100 nM	COC(=O)N1CC=C(c2ccc(CN(C(=O)C(=O)Nc3cnc(N)c(C)c3)[C@H](C)c3ncccn3)nc2)CC1 [Example 84]
100 to 1000 nM	CCC(C)N(Cc1ccc(S(C)(=O)=O)cn1)C(=O)C(=O)Nc1cnc(N)c(C)c1 (stereo not drawn) [Example 85]
10 to 100 nM	Cc1cc(NC(=O)C(=O)N(Cc2ccc(C(F)(F)F)cn2)C(C)C(C)C)cnc1N (stereo not drawn) [Example 86]
100 to 1000 nM	CCC(C)N(Cc1cccc(C(F)(F)F)n1)C(=O)C(=O)Nc1cnc(N)c(C)c1 (stereo not drawn) [Example 87]
10 to 100 nM	CCC(C)N(Cc1ccc(OC(F)(F)F)cn1)C(=O)C(=O)Nc1cnc(N)c(C)c1 (stereo not drawn) [Example 92]
10 to 100 nM	CC(C)N(C(=O)C(=O)Nc1cnc(N)c2c1cnn2C)C1COCc2cc(C(F)(F)F)ccc21 (stereo not drawn) [Example 96]
< 10 nM	CCCN(C(=O)C(=O)Nc1cnc(N)c2c1cnn2C)C1COCc2cc(C(F)(F)F)ccc21 (stereo not drawn) [Example 97]
< 10 nM	CCN(C(=O)C(=O)Nc1cnc(N)c2c1cnn2C)C1COCc2cc(C(F)(F)F)ccc21 (stereo not drawn) [Example 101]
< 10 nM	Cn1ncc2c(NC(=O)C(=O)N(CC3CC3)C3COCc4cc(C(F)(F)F)ccc43)cnc(N)c21 (stereo not drawn) [Example 102]
< 10 nM	CC(C)CN(C(=O)C(=O)Nc1cnc(N)c2c1cnn2C)C1COCc2cc(C(F)(F)F)ccc21 (stereo not drawn) [Example 103]
100 to 1000 nM	CCC(C)N(Cc1cc(C(F)(F)F)ccn1)C(=O)C(=O)Nc1cnc(N)c(C)c1 (stereo not drawn) [Example 105]

GI50	Structure (SMILES)
> 10000 nM	Cc1cc(NC(=O)C(=O)N(CC(C)C)c2cccc(C(F)(F)F)c2)cnc1N [Example 107]
10 to 100 nM	CN(C(=O)C(=O)Nc1cnc(N)c2c1cnn2C)C1COCc2cc(C3=CCCOC3)ccc21 (stereo not drawn) [Example 108]
< 10 nM	[2H]C([2H])([2H])N(C(=O)C(=O)Nc1cnc(N)c2c1cnn2C)C1COCc2cc(C(F)(F)F)ccc21 (stereo not drawn) [Example 109]
100 to 1000 nM	CN(C(=O)C(=O)Nc1cnc(N)c2c1cnn2C)C1COCc2cc(C(F)(F)F)cnc21 (stereo not drawn) [Example 114]
< 10 nM	CN(C(=O)C(=O)Nc1cnc(N)c2c1cnn2C)C1COCc2cc(OC(F)(F)F)ccc21 (stereo not drawn) [Example 115]
10 to 100 nM	CC(C)N(C(=O)C(=O)Nc1cnc(N)c2c1cnn2C)C1COc2cc(C(F)(F)F)ccc21 (stereo not drawn) [Example 116]
10 to 100 nM	CCCN(C(=O)C(=O)Nc1cnc(N)c2c1cnn2C)C1COc2cc(C(F)(F)F)ccc21 (stereo not drawn) [Example 117]
< 10 nM	Cn1ncc2c(NC(=O)C(=O)N(C3CC3)C3COc4cc(C(F)(F)F)ccc43)cnc(N)c21 (stereo not drawn) [Example 118]
1000 to 10000 nM	Cn1ncc2c(NC(=O)C(=O)NC3COCc4cc(C(F)(F)F)ccc43)cnc(N)c21 (stereo not drawn) [Example 119]
1000 to 10000 nM	CN(C(=O)C(=O)Nc1cnc(N)c2c1cnn2C)C1CCOCC1 [Example 120]
< 10 nM	CCN(C(=O)C(=O)Nc1cnc(N)c2c1cnn2C)C1COc2cc(C(F)(F)F)ccc21 (stereo not drawn) [Example 121]
10 to 100 nM	CC(C)CN(C(=O)C(=O)Nc1cnc(N)c2c1cnn2C)C1COc2cc(C(F)(F)F)ccc21 (stereo not drawn) [Example 122]
< 10 nM	Cn1ncc2c(NC(=O)C(=O)N(CC3CC3)C3COc4cc(C(F)(F)F)ccc43)cnc(N)c21 (stereo not drawn) [Example 123]
< 10 nM	CCC(C)N(Cc1ccc(C2=CCN(C(=O)OC)CC2)cn1)C(=O)C(=O)Nc1cnc(N)c(C)c1 (stereo not drawn) [Example 125-P1]
1000 to 10000 nM	CN(C(=O)C(=O)Nc1cnc(N)c2c1cnn2C)C1CCOC1 (stereo not drawn) [Example 126]
10 to 100 nM	CN(C(=O)C(=O)Nc1cnc(N)c2c1cnn2C)C1CCOc2cc(C(F)(F)F)ccc21 (stereo not drawn) [Example 127]
10 to 100 nM	CC(C)Oc1ccc2c(c1)COCC2N(C)C(=O)C(=O)Nc1cnc(N)c2c1cnn2C (stereo not drawn) [Example 128]
1000 to 10000 nM	CN(C(=O)C(=O)Nc1cnc(N)c2c1cnn2C)C1CCCOC1 (stereo not drawn) [Example 129]
100 to 1000 nM	CN(C(=O)C(=O)Nc1cnc(N)c2c1cnn2C)C1CCN(c2ccccc2)C1 (stereo not drawn) [Example 130]
10 to 100 nM	CCC(C)N(C(=O)C(=O)Nc1cnc(N)c2c1cnn2C)C1COCc2cc(C(F)(F)F)ccc21 (stereo not drawn) [Example 131]
1000 to 10000 nM	CN(C(=O)C(=O)Nc1cnc(N)c2c1cnn2C)C1CCCN(c2ccccc2)C1 (stereo not drawn) [Example 133]
10 to 100 nM	CN(C(=O)C(=O)Nc1cnc(N)c2c1cnn2C)C1COCc2ccc(C(F)(F)F)cc21 (stereo not drawn) [Example 134]
10 to 100 nM	CN(C(=O)C(=O)Nc1cnc(N)c2c1cnn2C)C1CCc2cc(C(F)(F)F)ccc21 (stereo not drawn) [Example 136]
10 to 100 nM	CN1CCC(c2ccc3c(c2)COCC3N(C)C(=O)C(=O)Nc2cnc(N)c3c2cnn3C)CC1 (stereo not drawn) [Example 139]
< 10 nM	CN(C(=O)C(=O)Nc1cnc(N)c2c1cnn2C)C1COc2cc(-c3cnn(C)c3)ccc21 (stereo not drawn) [Example 140-P1]

Same assay, conditions: HCT116^MTAP Deletion cells, 10 days incubation, CTG readout; read-out: HCT116^MTAP Deletion GI50

GI50	Structure (SMILES)
> 10000 nM	CCC(C)N(Cc1cnn(C)c1)C(=O)C(=O)Nc1cnc(N)c(C)c1 (stereo not drawn) [Example 73]
< 10 nM	CC(C)C(C)N(Cc1ccc(C(F)(F)F)cn1)C(=O)C(=O)Nc1cnc(N)c2c1cnn2C (stereo not drawn) [Example 110-P2]
10 to 100 nM	CN(C(=O)C(=O)Nc1cnc(N)c2c1cnn2C)C1COCc2cc(-c3cnn(C)c3)ccc21 (stereo not drawn) [Example 124-P2]
< 10 nM	CCC(C)N(Cc1ccc(C2=CCN(C(=O)OC)CC2)cn1)C(=O)C(=O)Nc1cnc(N)c(C)c1 (stereo not drawn) [Example 125-P2]
10 to 100 nM	CN(C(=O)C(=O)Nc1cnc(N)c2c1cnn2C)C1COCc2cc(C3=CCOCC3)ccc21 (stereo not drawn) [Example 132-P2]
< 10 nM	CN(C(=O)C(=O)Nc1cnc(N)c2c1cnn2C)C1COCc2cc(-c3ccnn3C)ccc21 (stereo not drawn) [Example 137]
10 to 100 nM	CN(C(=O)C(=O)Nc1cnc(N)c2c1cnn2C)C1COCc2c1ccc(F)c2F (stereo not drawn) [Example 138]
